Measurements taken from patent publication US6686390B2, “Compounds having antiinflamatory activity: process for their preparation and pharmaceutical compositions containing them” (Dr. Reddy's Laboratories Limited, priority 2000, dated 2004).

Experiments:
[1] = target: T1, cox-1 enzyme (Ovis aries, UniProt P05979); assay: Spectrophotometric assay of cox-1 (TMPD oxidation); format: biochemical; conditions: microsomal fraction of ram seminal vesicles, read-out: Percent inhibition COX-1; for inhibition at 100 µM: Conc. 100 μM
T1 construct: Microsomal fraction of ram seminal vesicles used as a source of cox-1 enzyme; from tissue; host or cells: ram seminal vesicles (microsomal fraction)
T1 sequence (P05979 25-600): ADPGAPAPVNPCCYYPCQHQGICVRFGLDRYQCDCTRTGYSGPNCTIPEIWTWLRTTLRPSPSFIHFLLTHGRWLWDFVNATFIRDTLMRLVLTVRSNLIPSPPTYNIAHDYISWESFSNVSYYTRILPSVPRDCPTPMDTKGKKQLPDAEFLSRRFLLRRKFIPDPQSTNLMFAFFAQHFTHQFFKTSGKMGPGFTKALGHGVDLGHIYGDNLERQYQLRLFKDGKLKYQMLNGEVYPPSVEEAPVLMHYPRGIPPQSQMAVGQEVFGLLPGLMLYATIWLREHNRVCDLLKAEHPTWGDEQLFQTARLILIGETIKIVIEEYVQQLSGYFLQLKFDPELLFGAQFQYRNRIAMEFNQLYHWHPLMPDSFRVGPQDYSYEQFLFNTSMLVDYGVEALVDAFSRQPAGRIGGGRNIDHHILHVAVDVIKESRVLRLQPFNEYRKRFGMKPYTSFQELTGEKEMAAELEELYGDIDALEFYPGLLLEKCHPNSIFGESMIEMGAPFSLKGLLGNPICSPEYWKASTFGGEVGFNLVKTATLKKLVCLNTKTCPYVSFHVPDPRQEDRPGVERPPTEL
Method: (§1) 1. Spectrophotometric assay of cox-1 and cox-2:
(§2) Microsomal fraction of ram seminal vesicles used as a source of cox-1 enzyme (Hemler et al., 1976) and microsomes from sf-9 cells infected with baculo virus containing human cox-2 c-DNA used as a source of cox-2 enzyme (Wanda et al., 1994). Enzyme activity was measured using a chromogenic assay based on oxidation of N,N,N′,N′-tetramethyl-p-phenylenediamine (TMPD) during the reduction of PGG2 to PGH2 as per described by Copeland et al., 1994 with following modifications. The assay mixture (1000 μl) contains […] pH 8.0, 3 μM EDTA, 15 μM hematin, 150 units enzyme and 8% DMSO. The mixture was pre-incubated at 25° C. for 15 minutes before initiation of enzyme reaction in presence of compound/vehicle. The reaction was initiated by the addition of 100 μM arachidonic acid and 120 μM TMPD. The enzyme activity is measured by estimation of the initial velocity of TMPD oxidation over the first 25 seconds of the reaction followed by increase in absorbency at […]. The IC50 values were calculated using non-linear regression analysis of percent inhibitions.

[2] = target: T2, COX-2 (Homo sapiens, UniProt P35354); assay: Human whole blood assay, COX-2 inhibition; format: cell-based; set-up: endogenous in cells; host or cells: human whole blood; conditions: read-out: IC50 COX-II
T2 sequence (P35354 18-604): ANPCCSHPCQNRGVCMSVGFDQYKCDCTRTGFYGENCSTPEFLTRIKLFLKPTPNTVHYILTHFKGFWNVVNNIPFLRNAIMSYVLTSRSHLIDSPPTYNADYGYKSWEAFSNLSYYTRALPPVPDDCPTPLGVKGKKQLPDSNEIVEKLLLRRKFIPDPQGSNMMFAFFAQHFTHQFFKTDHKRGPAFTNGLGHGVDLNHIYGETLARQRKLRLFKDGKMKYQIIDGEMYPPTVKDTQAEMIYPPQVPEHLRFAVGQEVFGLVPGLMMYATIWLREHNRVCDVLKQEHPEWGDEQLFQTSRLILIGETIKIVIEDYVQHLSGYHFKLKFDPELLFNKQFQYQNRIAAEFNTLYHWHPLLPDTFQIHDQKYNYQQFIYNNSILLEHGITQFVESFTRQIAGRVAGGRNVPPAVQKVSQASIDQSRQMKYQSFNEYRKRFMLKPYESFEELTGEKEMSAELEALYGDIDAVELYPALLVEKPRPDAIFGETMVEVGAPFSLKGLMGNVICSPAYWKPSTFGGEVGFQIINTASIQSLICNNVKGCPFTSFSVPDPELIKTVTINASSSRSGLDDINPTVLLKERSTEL
Method: (§3) 2) Human Whole Blood Assay:
An aliquot of fresh blood was mixed either with DMSO or test compounds and was allowed to clot for 1 hour at 37° C. TXB2 levels in the serum were measured using EIA kit (Cayman chemicals, USA) after deproteinization.

[3] = target: T2, COX-2; assay: Spectrophotometric assay of cox-2 (TMPD oxidation); format: biochemical; set-up: made in house; host or cells: sf-9 insect cells, baculovirus; conditions: microsomes from sf-9 cells with human cox-2, read-out: Percent inhibition COX-2; for inhibition at 100 µM: Conc. 100 μM
Method: as §1, §2

[4] = target: T3, COX-1 (Homo sapiens, UniProt P23219); assay: Human whole blood assay, COX-1 inhibition; format: cell-based
T3 construct: Fresh heparinised human whole blood; endogenous in cells; host or cells: human whole blood
Method: as §3
Fresh heparinised human whole blood was incubated with lipopolysaccharide (LPS) from E. coli at 100 μg/ml and with 2.5 μl vehicle (D)MSO) or test compound for 24 hours at 37° C. PGE2 levels in the plasma were measured using EIA kit (Cayman chemicals, USA) after deproteinization.

T3 sequence (P23219 24-599): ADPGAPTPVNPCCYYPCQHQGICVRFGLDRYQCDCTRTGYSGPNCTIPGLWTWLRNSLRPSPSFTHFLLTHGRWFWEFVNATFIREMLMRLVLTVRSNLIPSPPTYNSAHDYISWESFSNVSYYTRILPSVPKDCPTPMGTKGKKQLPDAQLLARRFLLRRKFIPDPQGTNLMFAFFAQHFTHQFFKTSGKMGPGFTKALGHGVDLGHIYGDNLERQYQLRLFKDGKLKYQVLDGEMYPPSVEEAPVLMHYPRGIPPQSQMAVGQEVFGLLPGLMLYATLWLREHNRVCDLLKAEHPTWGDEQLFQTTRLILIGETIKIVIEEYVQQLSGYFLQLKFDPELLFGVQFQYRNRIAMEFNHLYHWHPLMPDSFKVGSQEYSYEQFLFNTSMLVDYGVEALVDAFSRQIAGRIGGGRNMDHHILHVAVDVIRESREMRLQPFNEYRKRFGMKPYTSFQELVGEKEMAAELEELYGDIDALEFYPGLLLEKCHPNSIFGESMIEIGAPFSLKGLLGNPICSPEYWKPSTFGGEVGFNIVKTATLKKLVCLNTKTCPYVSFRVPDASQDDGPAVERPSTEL

Structure (SMILES) | inhibition at 100 µM [1] [%] | IC50 [2] [µM] | inhibition at 100 µM [3] [%] | IC50 [4] [µM] | melting point [°C] | inhibition at 10 µM ([1]; Conc. 10 μM) [%] | inhibition at 10 µM ([3]; Conc. 10 μM) [%]
CS(=O)(=O)c1ccc(C2=C(c3ccc(F)cc3)C(=O)OC2)c(F)c1 [Example 1, 3-(4-Fluorophenyl)-4-(2-fluoro-4-methylsulfonylphenyl)-2,5-dihydro-2-furanone] | 33 | 2.72 ± 0.425 | 100 | 195 ± 27.5 | 160 to 162 |  | 
CS(=O)(=O)c1ccc(C2=C(c3ccc(F)c(F)c3)C(=O)OC2)c(F)c1 [Example 69, 3-(3,4-Difluorophenyl)-4-(2-fluoro-4-methylsulfonylphenyl)-2,5-dihydro-2-furanone] | 10 | 0.318 ± 0.013 | 93 | > 500 | 146 to 148 |  | 
CCC1OC(=O)C(c2ccc(F)cc2)=C1c1ccc(S(C)(=O)=O)c(F)c1 (centres unmarked) [Example 68, 5-Ethyl-4-(3-fluoro-4-methylsulfonylphenyl)-3-(4-fluorophenyl)-2,5-dihydro-2-furanone] | 0 | 1.25 | 100 | 297 | 176 to 178 |  | 
CS(=O)(=O)c1ccc(C2=C(c3cccc(F)c3)C(=O)OC2)c(F)c1 [Example 52, 4-(2-Fluoro-4-methylsulfonylphenyl)-3-(3-fluorophenyl)-2,5-dihydro-2-furanone] | 12 | 0.578 ± 0.011 | 100 | 1220 ± 20 | 125 to 128 |  | 
Cc1cc(C2=C(c3ccccc3)C(=O)OC2)ccc1S(C)(=O)=O [Example 6, 4-(3-Methyl-4-methylsulfonylphenyl)-3-phenyl-2,5-dihydro-2-furanone] | 0 | 5.7 | 82 | > 500 | 167 to 170 |  | 
CCC1OC(=O)C(c2ccc(SC)c(C)c2)=C1c1ccc(S(C)(=O)=O)c(F)c1 (centres unmarked) [Example 71, 5-Ethyl-4-(3-fluoro-4-methylsulfonylphenyl)-3-(3-methyl-4-methylsulfanylphenyl)-2,5-dihydro-2-furanone] | 3 |  | 99 |  | 148 to 150 |  | 
COc1ccc(C2=C(c3ccc(S(C)(=O)=O)c(C)c3)COC2=O)cc1C [Example 55, 3-(3-Methyl-4-methoxyphenyl)-4-(3-methyl-4-methylsulfonylphenyl)-2,5-dihydro-2-furanone] | 30 | 1 | 100 | > 100 | 147 to 150 |  | 
CS(=O)(=O)c1ccc(C2=C(c3cc(F)cc(F)c3)C(=O)OC2)c(F)c1 [Example 70, 3-(3,5-Difluorophenyl)-4-(2-fluoro-4-methylsulfonylphenyl)-2,5-dihydro-2-furanone] | 49 | 0.913 | 92 | 115 | 125 to 127 |  | 
COc1ccc(C2=C(c3ccc(S(C)(=O)=O)cc3F)COC2=O)cc1C [Example 58, 4-(2-Fluoro-4-methylsulfonylphenyl)-3-(3-methyl-4-methoxyphenyl)-2,5-dihydro-2-furanone] | 19 | 0.524 ± 0.062 | 93 | 357 ± 7.45 | 144 to 146 |  | 
CSc1ccc(C2=C(c3ccc(S(C)(=O)=O)c(F)c3)COC2=O)cc1C [Example 53, 4-(3-Fluoro-4-methylsulfonylphenyl)-3-(3-methyl-4-methylsulfanylphenyl)-2,5-dihydro-2-furanone] | 44 | 0.368 | 100 | 247 ± 24 | 177 to 180 |  | 
CC1OC(=O)C(c2ccc(F)cc2)=C1c1ccc(S(C)(=O)=O)c(F)c1 (centres unmarked) [Example 89, 4-(3-Fluoro-4-methylsulfonylphenyl)-3-(4-fluorophenyl)-5-methyl-2,5-dihydro-2-furanone] |  | 6.13 |  | > 1000 | 190 to 192 | 0 | 95
